Results published in PubChem BioAssay AID463206 (Broad Institute, 2010).
Active and inactive are the calls of the source.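 Rule for the calls: active = caspase luminescence falls with dose and the half-maximal concentration AC50 from the fitted curve is at or below a set limit; inconclusive = flat fit at 30 to 70% signal loss, or invalid fit; inactive = AC50 above the limit, or signal rises instead.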

The molecules below were run on INS-1E cytokine-induced caspase-3/7, Caspase-Glo luminescence, 48 h (assay: inhibitors of cytokine-induced caspase-3/7 activity, dose response, orthogonal assay for beta-cell apoptosis protection project, INS-1E rat cells, luminescence (AID 463206)).

Row | SMILES | AC50
1 | C1CCC(C(CC2CCCCN2)C2CCCCC2)CC1 (centres undefined) | > 26 µM (inactive)
2 | Cc1ccc(-c2cc3cccc[n+]3cc2-c2ccc(C)cc2)cc1 | > 26 µM (inactive)
3 | Cc1ccc(-n2ncc3c2CCCC3NC(=O)c2ocnc2C)cc1C (centres undefined) | > 26 µM (inactive)
4 | COc1ccc([C@H]2CC(=O)C=C(c3ccnc4ccc(Cl)cc34)C2)cc1 | > 26 µM (inactive)
5 | C[N+]1=C(/C=C/Nc2ccccc2Cl)C(C)(C)c2ccccc21 | > 26 µM (inactive)
6 | CC(C(c1cccs1)c1c(N)n(C)c(=O)n(C)c1=O)[N+](=O)[O-] (centres undefined) | > 26 µM (inactive)
7 | CC(=O)OC1COC(OC2C(O)C(C)OC(OC3C(OC4CCC5(C)C(CCC6(C)C5CC=C5C7CC(C)(C)CCC7(C(=O)O)CCC56C)C4(C)CO)OCC(O)C3O)C2O)C(O)C1OC(C)=O (centres undefined) | > 26 µM (inactive)
8 | CC1CCC/C=C/C2CC(O)CC2C(O)/C=C/C(=O)O1 (centres undefined) | > 26 µM (inactive)
9 | OCc1ccc(O)c2ncccc12 | > 26 µM (inactive)
10 | N=c1c2c(-c3ccccc3)c(-c3ccccc3)n(Cc3ccco3)c2ncn1Cc1ccccc1 | > 26 µM (inactive)
11 | CC1=NN(c2nc(-c3ccc(C)cc3)cs2)C(=O)C1N=Nc1ccc(C(N)=O)cc1 (centres undefined) | > 26 µM (inactive)
12 | CN(Cc1c(F)cccc1Cl)C(=O)c1cc2ccccc2o1 | > 26 µM (inactive)
13 | Fc1ccccc1/C=N/Nc1nc(-c2ccccn2)nc2ccccc12 | > 26 µM (inactive)
14 | Cc1cccc(CNc2ncnc3ccc(-c4ccc5c(c4)OCCO5)cc23)c1 | > 26 µM (inactive)
15 | CCC1CCCCN1S(=O)(=O)c1ccc(NC(=O)c2nc(S(C)(=O)=O)ncc2Cl)cc1 (centres undefined) | > 26 µM (inactive)
16 | Cc1ccc(S(=O)(=O)Nc2ccccc2N(C)S(=O)(=O)c2ccc(C)cc2)cc1 | > 26 µM (inactive)
17 | CCCCC(=O)NC(c1ccc(N(C)C)cc1)c1ccc2cccnc2c1O (centres undefined) | > 26 µM (inactive)
18 | O=C(c1ccccc1)C(CN1CCCC1)c1ccccc1 (centres undefined) | > 26 µM (inactive)
19 | Cc1ccc2[nH]c3c(N4CCc5ccccc5C4)ncnc3c2c1 | > 26 µM (inactive)
20 | Cc1cccnc1CN1CCN(C(=O)c2cc(COc3ccc4ncccc4c3)on2)CC1 | > 26 µM (inactive)
21 | CCOC(=O)C1(Cc2cccc(Cl)c2)CCCN(C(=O)c2ccc(COC)s2)C1 (centres undefined) | > 26 µM (inactive)
22 | Cn1ncc2c(N3CCN(c4ccc(Cl)c(Cl)c4)CC3)ncnc21 | > 26 µM (inactive)
23 | NNc1ncnc2scc(-c3ccc(Cl)cc3)c12 | > 26 µM (inactive)

Row | SMILES | AC50
24 | CCC[N+]1(CC#CCC(c2ccccc2)c2ccccc2)CCCCC1 | > 26 µM (inactive)
25 | COc1cnc(-c2ccccn2)nc1Oc1ccc(C(C)(C)C)cc1 | > 26 µM (inactive)
26 | O=C(Nc1ccc(OC(F)F)c(Cl)c1)C(c1ccccc1)c1ccccc1 | > 26 µM (inactive)
27 | Cc1cnc(NC(=O)CN2CCN(c3ccccn3)CC2)s1 | > 26 µM (inactive)
28 | Cc1onc(-c2ccccc2)c1C(=O)NC(=S)NNC(=O)c1ccccc1O | > 26 µM (inactive)
29 | O=C(CN(Cc1ccco1)Cc1ccco1)Nc1cc(S(=O)(=O)N2CCCCC2)ccc1Cl | > 26 µM (inactive)
30 | COc1cccc(/C=N/NC(=O)c2c(C)nc3ccc(Cl)cn23)c1O | > 26 µM (inactive)
31 | Cc1ccc(-n2cccc2C(=S)N=P(N(C)C)(N(C)C)N(C)C)cc1 | > 26 µM (inactive)
32 | COc1ccc(-c2sc3ccccc3c2-c2ccc(OCCN3CCCCC3)cc2)cc1 | > 26 µM (inactive)
33 | Cc1cc(/C=N/n2cnnc2)c(C)n1-c1ccc(OCc2ccc(Cl)cc2Cl)cc1 | > 26 µM (inactive)
34 | Cc1ccccc1-c1cc(C(=O)Nc2sc(C)c(C)c2C(N)=O)c2ccccc2n1 | > 26 µM (inactive)
35 | Cc1oc2c(c1C(=O)c1ccccc1)C(=O)C(=O)c1ccccc1-2 | > 26 µM (inactive)
36 | COc1ccc(-c2nn(-c3ccccc3)cc2/C=N/N2C(=O)CSC2=S)cc1 | > 26 µM (inactive)
37 | COC(=O)c1cc(C)nc2c1C(=O)C(=O)C=C2N1CCOCC1 | > 26 µM (inactive)
38 | c1ccc2c(NCCCN3CCOCC3)c3ccccc3nc2c1 | 7.15 µM
39 | Cc1sc2ncnc(N3CCN(S(=O)(=O)c4ccc(C(C)(C)C)cc4)CC3)c2c1C | > 26 µM (inactive)
40 | CCNC(=O)Nc1cc(S(=O)(=O)Nc2ccc(OC)cc2)ccc1N1CCOCC1 | > 26 µM (inactive)
41 | O=C(NCc1cccnc1)Nc1ccc([N+](=O)[O-])cc1 | > 26 µM (inactive)
42 | Cc1cccc(NC(=S)N/N=C/c2ccc([N+](=O)[O-])s2)c1 | > 26 µM (inactive)
43 | CC(=O)c1ccc(OCc2cc(C(=O)N3CCCCC3c3cccnc3)no2)cc1 (centres undefined) | > 26 µM (inactive)
44 | CC(C)CC[n+]1ccn(C2=C([O-])c3ccccc3C(=O)/C2=N\S(=O)(=O)c2ccccc2)c1 | > 26 µM (inactive)
45 | NC(=S)N/N=C/c1c(O)ccc2ccccc12 | > 26 µM (inactive)
46 | Cc1cc(-c2ccccc2)n(-c2cc(N/N=C/c3ccccc3O)ncn2)n1 | > 26 µM (inactive)

Row | SMILES | AC50
47 | CC1=C/C(=N\OS(=O)(=O)c2ccccc2)C(C)=CC1=O | > 26 µM (inactive)
48 | C/C(=N\NC(=O)C(=O)Nc1cccc(Cl)c1)c1ccncc1 | > 26 µM (inactive)
49 | COc1cccc(/C=N/NC(=O)c2cc(-c3ccccn3)nc3ccccc23)c1O | > 26 µM (inactive)
50 | Cc1ccc(N2C(=O)CSC2c2cccnc2)c(Cl)c1 (centres undefined) | > 26 µM (inactive)
51 | O=C(N/N=C/c1cc(Cl)ccc1O)C(=O)Nc1ccccc1OC(F)(F)C(F)F | > 26 µM (inactive)
52 | O=C(Nc1ccc(OCC(F)(F)C(F)F)c(C(F)(F)F)c1)c1ccccc1O | > 26 µM (inactive)
53 | C/C(=N\NC(=O)c1ccc(Cl)cc1)c1ccccn1 | > 26 µM (inactive)
54 | Cc1ccc2nc(-c3cccc(-c4cccc(Cl)c4)c3)c(NCc3ccccc3)n2c1 | > 26 µM (inactive)
55 | CCCCNc1c(-c2cccc(-c3ccc(OC)cc3)c2)nc2ccc(C)cn12 | > 26 µM (inactive)
56 | O=c1cc(CSc2ccc(Cl)cc2)nc(-c2ccccn2)[nH]1 | > 26 µM (inactive)
57 | Cc1ccc(S(=O)(=O)NCc2ccncc2)cc1C | > 26 µM (inactive)
58 | CCOC(=O)c1ccc(NC(=O)c2nc(S(=O)(=O)Cc3ccccc3)ncc2Cl)cc1 | > 26 µM (inactive)
59 | CCCCCCc1cc2cc(-c3nnc(-c4ccccc4)o3)c(=O)oc2cc1O | > 26 µM (inactive)
60 | Cc1cc(C)nc(OC(=O)c2ccc(Cl)cc2Cl)n1 | > 26 µM (inactive)
61 | Cc1c(C(=O)Nc2nc(-c3ccccn3)cs2)oc2ccccc12 | > 26 µM (inactive)
62 | O=C(Nc1cccnc1)c1cccnc1 | > 26 µM (inactive)
63 | Cc1cccc(C2(c3cccc(C)c3)OC(=O)c3ccccc32)c1 | > 26 µM (inactive)
64 | C/C(=N\Nc1nc(C)cc(-c2ccccc2)n1)c1ccc(O)cc1 | > 26 µM (inactive)
65 | CCC(C)(C)c1ccc(OCCCC[n+]2cccc(C)c2C)c(C(C)(C)CC)c1 | > 26 µM (inactive)
66 | O=C(NNC(=O)c1cccnc1SCc1cccc([N+](=O)[O-])c1)c1ccc(F)cc1 | > 26 µM (inactive)
67 | CCN(CC)S(=O)(=O)c1cc(C)ccc1NC(=S)Nc1cccnc1 | > 26 µM (inactive)
68 | Cc1cc[n+](C(C)C(=O)c2ccc(-c3ccccc3)cc2)cc1 (centres undefined) | > 26 µM (inactive)
69 | Cc1cc(-c2ccccc2)cc(C)[n+]1Cc1ccccc1 | > 26 µM (inactive)
